Data as given in patent US8686113B2 (priority 2009, dated 2014).
In brackets after ≈: the same amount, converted by molar mass. Like-named read-outs stand apart in the source and are kept apart here. Non-standard residues stand in square brackets, D forms with d. Residues, ends and D or L forms follow the SMILES beside them. No end group written: not given here. *: point of attachment. Hyp = O=C(O)[C@@H]1C[C@@H](O)CN1; Tle = CC(C)(C)[C@H](N)C(=O)O; Orn = NCCC[C@H](N)C(=O)O; NHPr = CCCN*

Assays:
E. coli BL21 A1 = type: cell-based, Escherichia coli
Summary of the method: (§1)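 Broth microdilution in 1% TSB with twofold peptide series, final 128 μg/mL to 62.5 ng/mL, against 5×10^6 bacteria/mL stock suspension added 1:1. Incubated 20 h at 37 °C, growth read by absorbance at 595 nm; MIC is the lowest concentration with no growth, determined in triplicate.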

[1] = Stability against bacterial proteases in E. coli lysate; type: in vitro ADME; conditions: E. coli lysate with 0.5 mg/mL protein concentration, 37° C.
Experimental: For the bacterial lysate, 500 mL of nutrient broth (Carl Roth GmbH+Co. KG, Karlsruhe) was inoculated with E. coli BL21 A1 and incubated overnight at 37° C. 2×250 mL bacterial suspension were centrifuged for 25 min at 5000 rpm and 4° C. in a Beckman Avanti™ J-20-XP centrifuge with JLA-10.500 rotor (Beckman Coulter, Fullerton, U.S.A.). The pellets were each suspended in 30 mL PBS (pH 7.4) and centrifuged again in a Beckman Allegra™ 2IR centrifuge (Beckman Coulter, Fullerton, U.S.A.). The pellets were each suspended in 10 mL PBS and were disrupted with ultrasound (Vibra-cell™ microtip, Fisher Bioblock Scientific, Illkirch, France) 2×5 min (750 W; amplitude 40%; 2 s on/3 s off) on ice. The bacterial lysates were combined and 1 mL aliquots were centrifuged at 15400 rpm for 20 min at 4° C. (Beckman Allegra™). The supernatants were removed and stored at −20° C. The protein content of the bacterial lysate was determined by protein determination according to Bradford.
A solution of 0.15 μg/mL peptide in bacterial lysate with protein content of 1.5 mg/mL or 0.5 mg/mL was incubated at 37° C. After 0, 30, 60, 120, 240 or 360 min, 200 μL was taken from each and the proteins were precipitated with 50 μL of 15% trichloroacetic acid. Then it was incubated for 10 min at 4° C. and then centrifuged for 5 min at 13000 rpm in a Minispin desktop centrifuge. 210 μL was taken from the supernatant and neutralized with 1 mol/L sodium hydroxide solution. The intact peptide and the degradation products were analyzed by HPLC. 60 μL of 3% aqueous acetonitrile with 0.1% trifluoroacetic acid (TFA) was added to the solution and 250 μL of the mixture was injected. After chromatographic separation, the constituents were identified by MALDI-TOF-MS,
In order to investigate the stability against bacterial proteases, a lysate was prepared from an overnight culture of E. coli BL21 A1 and the peptides were incubated in it. Using Bradford protein determination, the protein concentration was adjusted to 0.5 or 1.5 mg/mL.

[2] = mouse, serum
M. luteus 10240 = assay: Growth inhibition assay (microdilution MIC); type: cell-based, Micrococcus luteus; conditions: 10240, 20 h
Summary of the method: as §1

[3] = 25% aqueous mouse serum, 37° C., 75 μg/mL peptide
[4] = mouse, serum; remark: listed apart in the source
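Wherever Half-life in 25% mouse serum is given: intact peptide left at successive time points measured by reversed-phase HPLC with an acetonitrile gradient in the supernatant after precipitation of serum proteins.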

Compound	MIC values against E. coli (E. coli BL21 A1) [µg/mL]	MIC E. coli BL21 A1 (E. coli BL21 A1; BL21, 20 h) [µg/mL]	half-life [1] [h]	half-life ([2]; Half-life in 25% mouse serum, 25% aqueous mouse serum, 37° C., 75 μg/mL peptide) [h]	half-life ([2]; half-life in 25% aqueous mouse serum, 25% serum) [h]	MIC M. luteus 10240 (M. luteus 10240) [µg/mL]	Half-life in 25% mouse serum [3] [h]	MIC E. coli BL21 A1 (E. coli BL21 A1; 1% TSB, 20 h at 37° C.) [µg/mL]	half-life [4] [h]
CC[C@H](C)[C@H](NC(=O)[C@H](CCCN)NC(=O)[C@H](CCCNC(=N)N)NC(=O)[C@@H]1CCCN1C(=O)[C@@H]1CCCN1C(=O)[C@H](CCCNC(=N)N)NC(=O)[C@@H]1CCCN1C(=O)[C@H](CCCNC(=N)N)NC(=O)[C@@H]1CCCN1C(=O)[C@H](CC(C)C)NC(=O)[C@H](Cc1ccc(O)cc1)NC(=O)[C@@H]1CCCN1C(=O)[C@@H]1CCCN1C(=O)[C@H](CCCCN)NC(=O)[C@H](CC(=O)O)NC(=O)[C@@H](N)C(C)C)C(=O)N[C@@H](Cc1ccc(O)cc1)C(=O)N[C@@H](CC(N)=O)C(=O)N[C@@H](CCCN)C(N)=O [SEQ ID NO. 72, VDKPPYLPRPRPPROIYNO-NH2] (H-VDKPPYLPRPRPPR[Orn]IYN[Orn]-NH2)	8 (≈ 3.47 µM)	8 (≈ 3.47 µM)	1.92	> 6	> 6				
VDKPPYLPRPRPPRRIYNR [compound 19]		32				64	<0.5		
CC[C@H](C)[C@H](NC(=O)[C@H](CCCNC(=N)N)NC(=O)[C@H](CCCNC(=N)N)NC(=O)[C@@H]1CCCN1C(=O)[C@@H]1CCCN1C(=O)[C@H](CCCNC(=N)N)NC(=O)[C@@H]1CCCN1C(=O)[C@H](CCCNC(=N)N)NC(=O)[C@@H]1CCCN1C(=O)[C@H](CC(C)C)NC(=O)[C@H](Cc1ccc(O)cc1)NC(=O)[C@@H]1CCCN1C(=O)[C@@H]1CCCN1C(=O)[C@H](CCCCN)NC(=O)[C@H](CC(=O)O)NC(=O)[C@@H](N)C(C)C)C(=O)N[C@@H](Cc1ccc(O)cc1)C(=O)N[C@@H](CC(N)=O)C(=O)N[C@@H](CCCN)C(N)=O [compound 50] (H-VDKPPYLPRPRPPRRIYN[Orn]-NH2)		8 (≈ 3.41 µM)				16 (≈ 6.81 µM)	2		
CC(C)C[C@H](NC(=O)[C@H](Cc1ccc(O)cc1)NC(=O)[C@@H]1CCCN1C(=O)[C@@H]1CCCN1C(=O)[C@H](CCCCN)NC(=O)[C@H](CC(=O)O)NC(=O)[C@@H](N)C(C)C)C(=O)N1CCC[C@H]1C(=O)N[C@@H](CCCNC(=N)N)C(=O)N1CCC[C@H]1C(=O)N[C@@H](CCCNC(=N)N)C(=O)N1CCC[C@H]1C(=O)N1C[C@H](O)C[C@H]1C(=O)N[C@@H](CCCNC(=N)N)C(=O)N1C[C@H](O)C[C@H]1C(=O)N[C@H](C(=O)N[C@@H](Cc1ccc(O)cc1)C(=O)N[C@@H](CC(N)=O)C(=O)N[C@@H](CCCN)C(N)=O)C(C)(C)C [SEQ ID NO. 110] (H-VDKPPYLPRPRP[Hyp]R[Hyp][Tle]YN[Orn]-NH2)			> 4					2 (≈ 0.862 µM)	
CC(C)C[C@H](NC(=O)[C@H](CCCN)NC(=O)[C@H](CCCNC(=N)N)NC(=O)[C@@H]1CCCN1C(=O)[C@@H]1CCCN1C(=O)[C@H](CCCNC(=N)N)NC(=O)[C@@H]1CCCN1C(=O)[C@H](CCCNC(=N)N)NC(=O)[C@@H]1CCCN1C(=O)[C@H](CC(C)C)NC(=O)[C@H](Cc1ccc(O)cc1)NC(=O)[C@@H]1CCCN1C(=O)[C@@H]1CCCN1C(=O)[C@H](CCCCN)NC(=O)[C@H](CC(=O)O)NC(=O)[C@@H](N)C(C)C)C(=O)N[C@@H](Cc1ccc(O)cc1)C(=O)N[C@@H](CC(N)=O)C(=O)N[C@@H](CCCN)C(N)=O [compound 73] (H-VDKPPYLPRPRPPR[Orn]LYN[Orn]-NH2)		8 (≈ 3.47 µM)	1.5			16 (≈ 6.94 µM)			
CCCNC(=O)[C@H](CCCNC(=N)N)NC(=O)[C@H](CC(N)=O)NC(=O)[C@H](Cc1ccc(O)cc1)NC(=O)[C@@H](NC(=O)[C@H](CCCN)NC(=O)[C@H](CCCNC(=N)N)NC(=O)[C@@H]1CCCN1C(=O)[C@@H]1CCCN1C(=O)[C@H](CCCNC(=N)N)NC(=O)[C@@H]1CCCN1C(=O)[C@H](CCCNC(=N)N)NC(=O)[C@@H]1CCCN1C(=O)[C@H](CC(C)C)NC(=O)[C@H](Cc1ccc(O)cc1)NC(=O)[C@@H]1CCCN1C(=O)[C@@H]1CCCN1C(=O)[C@H](CCCCN)NC(=O)[C@H](CC(=O)O)NC(=O)[C@@H](N)C(C)C)[C@@H](C)CC [compound 71] (H-VDKPPYLPRPRPPR[Orn]IYNR-NHPr)						8 (≈ 3.35 µM)	>6		1.75
